± gives the expanded uncertainty stated by the source.
Experiment: refractive index (Na D-line) (dimensionless); xn = mol fraction of the nth substance listed
Conditions: 100 kPa, Liquid, Standard Abbe refractometry

CN1CCC[C@H]1c1cccnc1 [(-)-3-(N-methylpyrrolidino)pyridine] + CC(O)CO
refractive index (293.15 K, x1 = 0.1): 1.45151 ± 0.00037
refractive index (293.15 K, x1 = 0.2009): 1.46746 ± 0.00037
refractive index (293.15 K, x1 = 0.3): 1.48003 ± 0.00037
refractive index (293.15 K, x1 = 0.4016): 1.4907 ± 0.00037
refractive index (293.15 K, x1 = 0.5): 1.49923 ± 0.00038
refractive index (293.15 K, x1 = 0.6005): 1.50631 ± 0.00038
refractive index (293.15 K, x1 = 0.7): 1.51219 ± 0.00039
refractive index (293.15 K, x1 = 0.7983): 1.51744 ± 0.00039
refractive index (293.15 K, x1 = 0.9): 1.52199 ± 0.0004
refractive index (293.15 K, x1 = 1): 1.52665 ± 0.0004
refractive index (298.15 K, x1 = 0.1): 1.44969 ± 0.00037
refractive index (298.15 K, x1 = 0.2009): 1.4656 ± 0.00037
refractive index (298.15 K, x1 = 0.3): 1.47804 ± 0.00037
refractive index (298.15 K, x1 = 0.4016): 1.48864 ± 0.00037
refractive index (298.15 K, x1 = 0.5): 1.49711 ± 0.00038
refractive index (298.15 K, x1 = 0.6005): 1.50413 ± 0.00038
refractive index (298.15 K, x1 = 0.7): 1.50997 ± 0.00039
refractive index (298.15 K, x1 = 0.7983): 1.5152 ± 0.00039
refractive index (298.15 K, x1 = 0.9): 1.51971 ± 0.0004
refractive index (298.15 K, x1 = 1): 1.52439 ± 0.0004
refractive index (303.15 K, x1 = 0.1): 1.448 ± 0.00037
refractive index (303.15 K, x1 = 0.2009): 1.46377 ± 0.00037
refractive index (303.15 K, x1 = 0.3): 1.47612 ± 0.00037
refractive index (303.15 K, x1 = 0.4016): 1.48662 ± 0.00037
refractive index (303.15 K, x1 = 0.5): 1.49496 ± 0.00038
refractive index (303.15 K, x1 = 0.6005): 1.50195 ± 0.00038
refractive index (303.15 K, x1 = 0.7): 1.50774 ± 0.00039
refractive index (303.15 K, x1 = 0.7983): 1.51296 ± 0.00039
refractive index (303.15 K, x1 = 0.9): 1.51749 ± 0.0004
refractive index (303.15 K, x1 = 1): 1.52214 ± 0.0004
refractive index (308.15 K, x1 = 0.1): 1.44622 ± 0.00037
refractive index (308.15 K, x1 = 0.2009): 1.46193 ± 0.00037
refractive index (308.15 K, x1 = 0.3): 1.47424 ± 0.00037
refractive index (308.15 K, x1 = 0.4016): 1.48462 ± 0.00037
refractive index (308.15 K, x1 = 0.5): 1.49301 ± 0.00038
refractive index (308.15 K, x1 = 0.6005): 1.49987 ± 0.00038
refractive index (308.15 K, x1 = 0.7): 1.50568 ± 0.00039
refractive index (308.15 K, x1 = 0.7983): 1.51076 ± 0.00039
refractive index (308.15 K, x1 = 0.9): 1.5153 ± 0.0004
refractive index (308.15 K, x1 = 1): 1.51988 ± 0.0004
refractive index (313.15 K, x1 = 0.1): 1.44441 ± 0.00037
refractive index (313.15 K, x1 = 0.2009): 1.46029 ± 0.00037
refractive index (313.15 K, x1 = 0.3): 1.4723 ± 0.00037
refractive index (313.15 K, x1 = 0.4016): 1.48255 ± 0.00037
refractive index (313.15 K, x1 = 0.5): 1.49092 ± 0.00038
refractive index (313.15 K, x1 = 0.6005): 1.49774 ± 0.00038
refractive index (313.15 K, x1 = 0.7): 1.50345 ± 0.00039
refractive index (313.15 K, x1 = 0.7983): 1.5087 ± 0.00039
refractive index (313.15 K, x1 = 0.9): 1.51312 ± 0.0004
refractive index (313.15 K, x1 = 1): 1.5179 ± 0.0004
refractive index (318.15 K, x1 = 0.1): 1.44265 ± 0.00037
refractive index (318.15 K, x1 = 0.2009): 1.45843 ± 0.00037
refractive index (318.15 K, x1 = 0.3): 1.47031 ± 0.00037
refractive index (318.15 K, x1 = 0.4016): 1.48043 ± 0.00037
refractive index (318.15 K, x1 = 0.5): 1.48871 ± 0.00038
refractive index (318.15 K, x1 = 0.6005): 1.49555 ± 0.00038
refractive index (318.15 K, x1 = 0.7): 1.50118 ± 0.00039
refractive index (318.15 K, x1 = 0.7983): 1.50651 ± 0.00039
refractive index (318.15 K, x1 = 0.9): 1.511 ± 0.0004
refractive index (318.15 K, x1 = 1): 1.51592 ± 0.0004
refractive index (323.15 K, x1 = 0.1): 1.44081 ± 0.00037
refractive index (323.15 K, x1 = 0.2009): 1.45653 ± 0.00037
refractive index (323.15 K, x1 = 0.3): 1.46833 ± 0.00037
refractive index (323.15 K, x1 = 0.4016): 1.47837 ± 0.00037
refractive index (323.15 K, x1 = 0.5): 1.48665 ± 0.00038
refractive index (323.15 K, x1 = 0.6005): 1.49341 ± 0.00038
refractive index (323.15 K, x1 = 0.7): 1.49904 ± 0.00039
refractive index (323.15 K, x1 = 0.7983): 1.50435 ± 0.00039
refractive index (323.15 K, x1 = 0.9): 1.50881 ± 0.0004
refractive index (323.15 K, x1 = 1): 1.51373 ± 0.0004

CN1CCC[C@H]1c1cccnc1 [(-)-3-(N-methylpyrrolidino)pyridine] + CCC(C)O
refractive index (293.15 K, x1 = 0.1): 1.41889 ± 0.00037
refractive index (293.15 K, x1 = 0.2036): 1.43839 ± 0.00037
refractive index (293.15 K, x1 = 0.3): 1.4542 ± 0.00037
refractive index (293.15 K, x1 = 0.4): 1.46843 ± 0.00037
refractive index (293.15 K, x1 = 0.5): 1.48084 ± 0.00038
refractive index (293.15 K, x1 = 0.6): 1.49173 ± 0.00038
refractive index (293.15 K, x1 = 0.6956): 1.50103 ± 0.00039
refractive index (293.15 K, x1 = 0.8): 1.51029 ± 0.00039
refractive index (293.15 K, x1 = 0.9): 1.51858 ± 0.0004
refractive index (293.15 K, x1 = 1): 1.52665 ± 0.0004
refractive index (298.15 K, x1 = 0.1): 1.41668 ± 0.00037
refractive index (298.15 K, x1 = 0.2036): 1.43618 ± 0.00037
refractive index (298.15 K, x1 = 0.3): 1.45199 ± 0.00037
refractive index (298.15 K, x1 = 0.4): 1.46621 ± 0.00037
refractive index (298.15 K, x1 = 0.5): 1.47864 ± 0.00038
refractive index (298.15 K, x1 = 0.6): 1.48952 ± 0.00038
refractive index (298.15 K, x1 = 0.6956): 1.4988 ± 0.00039
refractive index (298.15 K, x1 = 0.8): 1.50803 ± 0.00039
refractive index (298.15 K, x1 = 0.9): 1.51632 ± 0.0004
refractive index (298.15 K, x1 = 1): 1.52439 ± 0.0004
refractive index (303.15 K, x1 = 0.1): 1.41438 ± 0.00037
refractive index (303.15 K, x1 = 0.2036): 1.43393 ± 0.00037
refractive index (303.15 K, x1 = 0.3): 1.44972 ± 0.00037
refractive index (303.15 K, x1 = 0.4): 1.46397 ± 0.00037
refractive index (303.15 K, x1 = 0.5): 1.47644 ± 0.00038
refractive index (303.15 K, x1 = 0.6): 1.48735 ± 0.00038
refractive index (303.15 K, x1 = 0.6956): 1.49664 ± 0.00039
refractive index (303.15 K, x1 = 0.8): 1.50585 ± 0.00039
refractive index (303.15 K, x1 = 0.9): 1.5141 ± 0.0004
refractive index (303.15 K, x1 = 1): 1.52214 ± 0.0004
refractive index (308.15 K, x1 = 0.1): 1.41211 ± 0.00037
refractive index (308.15 K, x1 = 0.2036): 1.43166 ± 0.00037
refractive index (308.15 K, x1 = 0.3): 1.44747 ± 0.00037
refractive index (308.15 K, x1 = 0.4): 1.46172 ± 0.00037
refractive index (308.15 K, x1 = 0.5): 1.4742 ± 0.00038
refractive index (308.15 K, x1 = 0.6): 1.48511 ± 0.00038
refractive index (308.15 K, x1 = 0.6956): 1.49439 ± 0.00039
refractive index (308.15 K, x1 = 0.8): 1.50359 ± 0.00039
refractive index (308.15 K, x1 = 0.9): 1.51184 ± 0.0004
refractive index (308.15 K, x1 = 1): 1.51988 ± 0.0004
refractive index (313.15 K, x1 = 0.1): 1.40979 ± 0.00037
refractive index (313.15 K, x1 = 0.2036): 1.42936 ± 0.00037
refractive index (313.15 K, x1 = 0.3): 1.44519 ± 0.00037
refractive index (313.15 K, x1 = 0.4): 1.45945 ± 0.00037
refractive index (313.15 K, x1 = 0.5): 1.47192 ± 0.00038
refractive index (313.15 K, x1 = 0.6): 1.48284 ± 0.00038
refractive index (313.15 K, x1 = 0.6956): 1.49217 ± 0.00039
refractive index (313.15 K, x1 = 0.8): 1.50145 ± 0.00039
refractive index (313.15 K, x1 = 0.9): 1.50978 ± 0.0004
refractive index (313.15 K, x1 = 1): 1.5179 ± 0.0004
refractive index (318.15 K, x1 = 0.1): 1.40753 ± 0.00037
refractive index (318.15 K, x1 = 0.2036): 1.4271 ± 0.00037
refractive index (318.15 K, x1 = 0.3): 1.44297 ± 0.00037
refractive index (318.15 K, x1 = 0.4): 1.45725 ± 0.00037
refractive index (318.15 K, x1 = 0.5): 1.46971 ± 0.00038
refractive index (318.15 K, x1 = 0.6): 1.48065 ± 0.00038
refractive index (318.15 K, x1 = 0.6956): 1.49001 ± 0.00039
refractive index (318.15 K, x1 = 0.8): 1.49933 ± 0.00039
refractive index (318.15 K, x1 = 0.9): 1.50772 ± 0.0004
refractive index (318.15 K, x1 = 1): 1.51592 ± 0.0004
refractive index (323.15 K, x1 = 0.1): 1.40509 ± 0.00037
refractive index (323.15 K, x1 = 0.2036): 1.42476 ± 0.00037
refractive index (323.15 K, x1 = 0.3): 1.44065 ± 0.00037
refractive index (323.15 K, x1 = 0.4): 1.45496 ± 0.00037
refractive index (323.15 K, x1 = 0.5): 1.46747 ± 0.00038
refractive index (323.15 K, x1 = 0.6): 1.47843 ± 0.00038
refractive index (323.15 K, x1 = 0.6956): 1.48779 ± 0.00039
refractive index (323.15 K, x1 = 0.8): 1.49711 ± 0.00039
refractive index (323.15 K, x1 = 0.9): 1.5055 ± 0.0004
refractive index (323.15 K, x1 = 1): 1.51373 ± 0.0004
